Measurements: the supplement of paper PMC10307832

Experiments:
Assay in all cases: relative viability (nuclei count vs DMSO), 5 days (fraction); higher = more cells survive
[1] = test system: BEN
Procedure, shortened: (§1)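 One day after seeding in 1536-well plates, lung cancer cell lines were dosed by pin tool. Dosing was either single-drug or a fixed anchor-drug dose plus five library-drug doses (not always all listed) in √10 steps. After 5 days, nuclei were stained in one fix-and-stain step and counted on 4× images, and relative viability is the nuclei count of treated wells over that of vehicle wells, given as the median of duplicate plates.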

[2] = test system: EPLC-272H
Procedure, shortened: as §1

[3] = test system: HCC-827
Procedure, shortened: as §1

[4] = test system: HOP-62
Procedure, shortened: as §1

[5] = test system: LU99A
Procedure, shortened: as §1

[6] = test system: NCI-H1355
Procedure, shortened: as §1

[7] = test system: NCI-H1666
Procedure, shortened: as §1

[8] = test system: NCI-H1792
Procedure, shortened: as §1

[9] = test system: NCI-H1975
Procedure, shortened: as §1

[10] = test system: NCI-H2170
Procedure, shortened: as §1

[11] = test system: NCI-H23
Procedure, shortened: as §1

[12] = test system: NCI-H2405
Procedure, shortened: as §1

[13] = test system: NCI-H3122
Procedure, shortened: as §1

[14] = test system: NCI-H322M
Procedure, shortened: as §1

[15] = test system: NCI-H358
Procedure, shortened: as §1

[16] = test system: NCI-H520
Procedure, shortened: as §1

[17] = test system: NCI-H596
Procedure, shortened: as §1

[18] = test system: NCI-H647
Procedure, shortened: as §1

[19] = test system: NCI-H838
Procedure, shortened: as §1

[20] = test system: PC-14
Procedure, shortened: as §1

[21] = test system: UMC-11
Procedure, shortened: as §1

With O=C(O)CCCCC(CCSCc1ccccc1)SCc1ccccc1 (stereo not given) [CPI-613] + Nc1nc2[nH]cc(CCc3ccc(C(=O)N[C@@H](CCC(=O)O)C(=O)O)cc3)c2c(=O)[nH]1 [Pemetrexed] (partner 0.2 µM) as the compound, how does the relative viability ([1]; first compound 5 µM) read?
Its relative viability is 0.809.

What about the relative viability ([1]; first compound 15.81 µM) of the same compound?
The relative viability was 0.571.

And the relative viability ([1]; first compound 50 µM)?
The relative viability was 0.763.

And the relative viability ([1]; first compound 158.11 µM)?
The relative viability was 0.76.

What about the relative viability ([1]; first compound 500 µM) of the same compound?
Its relative viability is 0.703.

What about the relative viability ([2]; first compound 5 µM) of the same compound?
The relative viability was 0.324.

What about the relative viability ([2]; first compound 15.81 µM) of the same compound?
The relative viability was 0.289.

And the relative viability ([2]; first compound 50 µM)?
Its relative viability is 0.318.

And the relative viability ([2]; first compound 158.11 µM)?
The relative viability was 0.206.

And the relative viability ([2]; first compound 500 µM)?
Its relative viability is 0.05.

And the relative viability ([3]; first compound 5 µM)?
The relative viability was 0.251.

And the relative viability ([3]; first compound 15.81 µM)?
Its relative viability is 0.268.

And the relative viability ([3]; first compound 50 µM)?
The relative viability was 0.276.

What about the relative viability ([3]; first compound 158.11 µM) of the same compound?
The relative viability was 0.267.

And the relative viability ([3]; first compound 500 µM)?
The relative viability was 0.273.

And the relative viability ([4]; first compound 5 µM)?
The relative viability was 0.321.

What about the relative viability ([4]; first compound 15.81 µM) of the same compound?
The relative viability was 0.309.

What about the relative viability ([4]; first compound 50 µM) of the same compound?
Its relative viability is 0.272.

And the relative viability ([4]; first compound 158.11 µM)?
Its relative viability is 0.163.

And the relative viability ([4]; first compound 500 µM)?
The relative viability was 0.12.

What about the relative viability ([5]; first compound 5 µM) of the same compound?
Its relative viability is 0.179.

And the relative viability ([5]; first compound 15.81 µM)?
The relative viability was 0.199.

And the relative viability ([5]; first compound 50 µM)?
Its relative viability is 0.179.

And the relative viability ([5]; first compound 158.11 µM)?
Its relative viability is 0.186.

What about the relative viability ([5]; first compound 500 µM) of the same compound?
The relative viability was 0.183.

And the relative viability ([6]; first compound 5 µM)?
The relative viability was 1.02.

And the relative viability ([6]; first compound 15.81 µM)?
The relative viability was 0.983.

What about the relative viability ([6]; first compound 50 µM) of the same compound?
Its relative viability is 1.06.

And the relative viability ([6]; first compound 158.11 µM)?
Its relative viability is 0.754.

And the relative viability ([6]; first compound 500 µM)?
The relative viability was 0.457.

And the relative viability ([7]; first compound 5 µM)?
Its relative viability is 0.892.

And the relative viability ([7]; first compound 15.81 µM)?
Its relative viability is 0.857.

What about the relative viability ([7]; first compound 50 µM) of the same compound?
The relative viability was 0.835.

What about the relative viability ([7]; first compound 158.11 µM) of the same compound?
Its relative viability is 0.489.

And the relative viability ([7]; first compound 500 µM)?
The relative viability was 0.471.

And the relative viability ([8]; first compound 5 µM)?
The relative viability was 0.744.

What about the relative viability ([8]; first compound 15.81 µM) of the same compound?
Its relative viability is 0.63.

What about the relative viability ([8]; first compound 50 µM) of the same compound?
Its relative viability is 0.636.

And the relative viability ([8]; first compound 158.11 µM)?
Its relative viability is 0.109.

And the relative viability ([8]; first compound 500 µM)?
The relative viability was 0.0742.

What about the relative viability ([9]; first compound 5 µM) of the same compound?
Its relative viability is 0.267.

And the relative viability ([9]; first compound 15.81 µM)?
Its relative viability is 0.293.

What about the relative viability ([9]; first compound 50 µM) of the same compound?
Its relative viability is 0.286.

What about the relative viability ([9]; first compound 158.11 µM) of the same compound?
Its relative viability is 0.142.

What about the relative viability ([9]; first compound 500 µM) of the same compound?
Its relative viability is 0.0754.

What about the relative viability ([10]; first compound 5 µM) of the same compound?
Its relative viability is 0.278.

And the relative viability ([10]; first compound 15.81 µM)?
Its relative viability is 0.251.

And the relative viability ([10]; first compound 50 µM)?
Its relative viability is 0.244.

And the relative viability ([10]; first compound 158.11 µM)?
Its relative viability is 0.26.

And the relative viability ([10]; first compound 500 µM)?
Its relative viability is 0.227.

What about the relative viability ([11]; first compound 5 µM) of the same compound?
The relative viability was 0.673.

And the relative viability ([11]; first compound 15.81 µM)?
The relative viability was 0.621.

What about the relative viability ([11]; first compound 50 µM) of the same compound?
The relative viability was 0.544.

What about the relative viability ([11]; first compound 158.11 µM) of the same compound?
The relative viability was 0.19.

And the relative viability ([11]; first compound 500 µM)?
The relative viability was 0.0031.

And the relative viability ([12]; first compound 5 µM)?
The relative viability was 1.04.

And the relative viability ([12]; first compound 15.81 µM)?
Its relative viability is 0.922.

And the relative viability ([12]; first compound 50 µM)?
Its relative viability is 0.968.

And the relative viability ([12]; first compound 158.11 µM)?
The relative viability was 0.63.

And the relative viability ([12]; first compound 500 µM)?
The relative viability was 0.336.

And the relative viability ([13]; first compound 5 µM)?
The relative viability was 0.19.

What about the relative viability ([13]; first compound 15.81 µM) of the same compound?
Its relative viability is 0.194.

And the relative viability ([13]; first compound 50 µM)?
The relative viability was 0.181.

And the relative viability ([13]; first compound 158.11 µM)?
Its relative viability is 0.181.

And the relative viability ([13]; first compound 500 µM)?
Its relative viability is 0.153.

And the relative viability ([14]; first compound 5 µM)?
Its relative viability is 0.617.

What about the relative viability ([14]; first compound 15.81 µM) of the same compound?
Its relative viability is 0.58.

And the relative viability ([14]; first compound 50 µM)?
The relative viability was 0.616.

And the relative viability ([14]; first compound 158.11 µM)?
The relative viability was 0.637.

What about the relative viability ([14]; first compound 500 µM) of the same compound?
The relative viability was 0.441.

And the relative viability ([15]; first compound 5 µM)?
The relative viability was 0.152.

And the relative viability ([15]; first compound 15.81 µM)?
Its relative viability is 0.172.

What about the relative viability ([15]; first compound 50 µM) of the same compound?
Its relative viability is 0.182.

What about the relative viability ([15]; first compound 158.11 µM) of the same compound?
The relative viability was 0.156.

What about the relative viability ([15]; first compound 500 µM) of the same compound?
The relative viability was 0.0253.

And the relative viability ([16]; first compound 5 µM)?
The relative viability was 0.708.

And the relative viability ([16]; first compound 15.81 µM)?
Its relative viability is 0.627.

What about the relative viability ([16]; first compound 50 µM) of the same compound?
Its relative viability is 0.527.

What about the relative viability ([16]; first compound 158.11 µM) of the same compound?
Its relative viability is 0.232.

And the relative viability ([16]; first compound 500 µM)?
The relative viability was 0.155.

And the relative viability ([17]; first compound 5 µM)?
The relative viability was 0.538.

What about the relative viability ([17]; first compound 15.81 µM) of the same compound?
Its relative viability is 0.48.

What about the relative viability ([17]; first compound 50 µM) of the same compound?
The relative viability was 0.519.

What about the relative viability ([17]; first compound 158.11 µM) of the same compound?
Its relative viability is 0.352.

And the relative viability ([17]; first compound 500 µM)?
The relative viability was 0.0295.

What about the relative viability ([18]; first compound 5 µM) of the same compound?
Its relative viability is 0.157.

And the relative viability ([18]; first compound 15.81 µM)?
The relative viability was 0.158.

And the relative viability ([18]; first compound 50 µM)?
The relative viability was 0.113.

And the relative viability ([18]; first compound 158.11 µM)?
The relative viability was 0.0906.

What about the relative viability ([18]; first compound 500 µM) of the same compound?
Its relative viability is 0.0167.

And the relative viability ([19]; first compound 5 µM)?
The relative viability was 0.232.

And the relative viability ([19]; first compound 15.81 µM)?
Its relative viability is 0.229.

And the relative viability ([19]; first compound 50 µM)?
Its relative viability is 0.215.

What about the relative viability ([19]; first compound 158.11 µM) of the same compound?
Its relative viability is 0.149.

And the relative viability ([19]; first compound 500 µM)?
The relative viability was 0.0989.

What about the relative viability ([20]; first compound 5 µM) of the same compound?
The relative viability was 0.133.

What about the relative viability ([20]; first compound 15.81 µM) of the same compound?
The relative viability was 0.13.

What about the relative viability ([20]; first compound 50 µM) of the same compound?
Its relative viability is 0.122.

What about the relative viability ([20]; first compound 158.11 µM) of the same compound?
The relative viability was 0.121.

And the relative viability ([20]; first compound 500 µM)?
The relative viability was 0.0065.

What about the relative viability ([21]; first compound 5 µM) of the same compound?
The relative viability was 0.703.

And the relative viability ([21]; first compound 15.81 µM)?
The relative viability was 0.8.

And the relative viability ([21]; first compound 50 µM)?
The relative viability was 0.758.

And the relative viability ([21]; first compound 158.11 µM)?
The relative viability was 0.36.

What about the relative viability ([21]; first compound 500 µM) of the same compound?
The relative viability was 0.115.
